Experimental data as given in patent EP4796530A1 (Biocells (Beijing) Biotech Co., Ltd., priority 2023, dated 2025).
pIC50: −log10 of the molar value.

What was measured:
hERG potassium channel = target: T1, hERG potassium channel (Homo sapiens, UniProt Q12809); test: hERG inhibition, automated patch clamp (QPatch 48X) in HEK-293 cells stably expressing hERG; format: cell-based; conditions: HEK-293 cells stably expressing hERG potassium channel, read-out: hERG inhibition rate; for inhibition at 1 µM: pH 7.4, 1 µM; for inhibition at 10 µM: pH 7.4, 10 µM
T1 construct: host or cells: HEK-293 stably expressing hERG
Protocol: The culture temperature was 37 °C, and the carbon dioxide concentration was 5%.
Cell passage: The old medium was removed, and the cells were washed once with PBS. […] Once the cells were detached from the bottom of the dish, approximately 5 mL of complete medium pre-warmed at 37 °C was added. The cell suspension was gently triturated with a pipette to dissociate aggregated cells. The cell suspension was transferred to a sterile centrifuge tube and centrifuged at 1000 rpm for 5 min to collect the cells. For expansion or maintenance, the cells were seeded into 10 cm cell culture dishes at a density of 6×10^5 cells per cell culture dish (final volume: 5 mL).
Medium was added to terminate digestion, followed by centrifugation. The cells were then resuspended and counted. The cell density was adjusted to 2-3×10^6 cells/mL. Subsequently, the cells were gently mixed for 15-20 min on a balance shaker at room temperature, and then loaded for detection.
In this study, the automated patch clamp QPatch 48X (Sophion) system was used for electrophysiological detection.
First, the prepared cells were placed on the centrifuge of the Qpatch workstation. The cells were washed with multiple centrifugation/suspension cycles, and the cell culture medium was replaced with extracellular fluid. One MTP-96 plate was retrieved and placed at the MTP source position. The QPlate chip was retrieved and placed at the QPlate source position. The robotic arm scanned the barcodes of MTP-96 plate and QPlate chip, and transferred them to the measurement station. The intracellular fluid and extracellular fluid were aspirated from the reservoir and added to the intracellular fluid pool and the pool of cell and compound of the QPlate chip, respectively. At the measurement station, all measurement sites on the QPlate experienced initial quality control. The quality control process involved aspirating the cell suspension from the cell container of the centrifuge, positioning the cells onto the chip wells via a pressure controller, and establishing high-resistance seal to form a whole-cell recording mode. Once a stable control current baseline was obtained, the test substances can be sequentially aspirated from the test substance MTP-96 plate in order of concentration and applied to the cells.
The voltage stimulation protocol for whole-cell patch-clamp recording of hERG current was as follows: after the whole-cell seal was formed, the cell membrane voltage was clamped at -80 mV. The clamped voltage was depolarized from -80 mV to -50 mV and maintained for 0.5 s (as leak current detection), then stepped to 30 mV and maintained for 2.5 s, and then rapidly returned to -50 mV and maintained for 4 s, whereby tail current of the hERG channel can be elicited. Data was collected repeatedly every 10 s to observe the effect of the drug on hERG tail current. Experimental data was collected by the QPatch screening workstation and stored in the database server.
For each drug concentration, a two-dose regimen was set for a duration of at least 5 min. For each cell, the current detected in the compound-free extracellular fluid served as self-controls, and two cells were detected in independent replicates. All electrophysiological experiments were conducted at room temperature.
The second of the two dosages was used for data analysis. For each drug concentration, the average of the last three data points prior to the next drug concentration was taken to represent the current value for the drug concentration. The current value representing each drug concentration was normalized against the reference current value used as a blank control, and then the inhibition rate corresponding to each drug concentration was calculated.

NLRP3 [1] = target: NLRP3 (Mus musculus, UniProt Q8R4B8); test: Inhibition curves (IC50) of canonical NLRP3 activation in J774A.1 cells, IL-1β release; format: cell-based; parameters: The mouse macrophage cell line J774A.1 was used, and LPS was used as the first signal; host or cells: J774A.1 mouse monocyte-macrophage cell line; conditions: J774A.1 cell LPS+ATP activation model
Protocol: J774A.1 cells were plated in a 48-well plate at a density of 1.0×10^6 cells/mL, with 300 µL per well. Subsequently, NLRP3 was activated by LPS+ATP or LPS+Nig. […] ATP was purchased from Sigma, Cat. No.: L2654. Nig was purchased from Shanghai Yuanye Bio-Technology Co., Ltd., Cat. No.: S45490.
Experimental groups: a negative control group, an LPS-alone incubation control group, an LPS+ATP/Nig positive control group, and an example compound experimental group with different concentrations.
After the plated J774A.1 cells adhering to the plate, the culture medium was replaced. For all the groups except the negative control group, the culture medium was completely replaced with cell culture medium containing 1 µg/mL LPS. The negative control group received cell culture medium. Then, all the groups were incubated overnight. 18 h later, the culture medium was replaced again. The culture medium of the example compound experimental group was completely replaced with culture medium containing different concentrations of compounds; while the negative control group, the LPS-alone incubation control group, and the LPS+ATP/Nig positive control group received cell culture medium. 1 h later, the culture mediums of the LPS+ATP/Nig positive control group and the example compound experimental group with different concentrations were completely replaced with cell culture medium containing 5 mM ATP or 10 µM Nig. 1 h later, the cell supernatants were collected for IL-1β detection.
(§1) Therefore, the relative change in the amount of IL-1β release may directly reflect NLRP3 inhibitory effect. The inhibitory effect of the compounds varies with different concentrations, and based on this, an inhibition curve can be constructed, and the inhibitory effects of the compounds were assessed by IC50.

[2] = Rat plasma pharmacokinetics after intravenous administration (LC-MS); format: in vivo; conditions: SD rats, intravenous 2.5 mg/kg; for AUC: read-out: AUC from 1 to 1440 min
Protocol: SD rats were administered intravenously, at a dosage concentration of 2.5 mg/kg in each group. Blood was collected at the time points of 1 min, 30 min, 1 h, 2 h, 4 h, 6 h, and 24 h. The collected blood was centrifuged at 3000 rpm for 10 min at 4 °C to obtain plasma. Acetonitrile was added at a 1:3 volume ratio of plasma: acetonitrile to precipitate proteins. After centrifugation, the supernatant was collected and filtered. The concentration of the compound was detected using LC-MS (Agilent 1260-G6125, SIM mode).
Experimental groups: a vehicle control group, and a dosing group.

NLRP3 [3] = target: T2, NLRP3 (Homo sapiens, UniProt Q96P20); test: Inhibition curves (IC50) of canonical NLRP3 activation in healthy human whole blood, IL-1β release; format: cell-based; conditions: LPS+5 µM Nig canonical activation model
Protocol: 10 mL of human whole blood was collected intravenously aseptically, and plated into a 96-well plate, with 198 µL per well. Then, 2 µL of 100× gradient dilutions of the example compounds at specified concentrations were added, immediately followed by the addition of 10 µL of 21 µg/mL LPS gradient dilution. 3 h later, nigericin with a working concentration of 5 µM or 1 mM ATP was added. After stimulation for 1 h, the whole blood was collected and centrifuged to collect the supernatant. IL-1β in the sample supernatant was detected by ELISA method.
Experimental groups: a negative control group, an LPS-alone incubation control group, an LPS+Nig/ATP positive control group, and a 1 µM example compound experimental group.
10 mL of human whole blood was collected intravenously aseptically. The anticoagulant heparin sodium was added preemptively into a 50 mL centrifuge tube. The collected whole blood was directly plated in a 96-well plate, with 198 µL per well. […] IL-1β in the sample supernatant was detected by ELISA method.
Therefore, the relative change in the amount of IL-1β release may directly reflect NLRP3 inhibitory effect. The inhibitory effect of the compounds varies with different concentrations, and based on this, an inhibition curve can be constructed, and the inhibitory effect of the compounds were assessed by IC50.

NLRP3 [4] = target: T2, NLRP3; test: Inhibition curves (IC50) of canonical NLRP3 activation (LPS+Nig) in THP-1 cells, IL-1β release; format: cell-based; parameters: host or cells: THP-1 human acute monocytic leukemia cell line, PMA-differentiated; conditions: THP-1 cell LPS+Nig activation model
Protocol: Nig was purchased from Shanghai Yuanye Bio-Technology Co., Ltd., Cat. No.: S45490.
The cells were incubated overnight.
as §1

Chain of NLRP3 (Mus musculus, UniProt Q8R4B8) (Q8R4B8 whole entry): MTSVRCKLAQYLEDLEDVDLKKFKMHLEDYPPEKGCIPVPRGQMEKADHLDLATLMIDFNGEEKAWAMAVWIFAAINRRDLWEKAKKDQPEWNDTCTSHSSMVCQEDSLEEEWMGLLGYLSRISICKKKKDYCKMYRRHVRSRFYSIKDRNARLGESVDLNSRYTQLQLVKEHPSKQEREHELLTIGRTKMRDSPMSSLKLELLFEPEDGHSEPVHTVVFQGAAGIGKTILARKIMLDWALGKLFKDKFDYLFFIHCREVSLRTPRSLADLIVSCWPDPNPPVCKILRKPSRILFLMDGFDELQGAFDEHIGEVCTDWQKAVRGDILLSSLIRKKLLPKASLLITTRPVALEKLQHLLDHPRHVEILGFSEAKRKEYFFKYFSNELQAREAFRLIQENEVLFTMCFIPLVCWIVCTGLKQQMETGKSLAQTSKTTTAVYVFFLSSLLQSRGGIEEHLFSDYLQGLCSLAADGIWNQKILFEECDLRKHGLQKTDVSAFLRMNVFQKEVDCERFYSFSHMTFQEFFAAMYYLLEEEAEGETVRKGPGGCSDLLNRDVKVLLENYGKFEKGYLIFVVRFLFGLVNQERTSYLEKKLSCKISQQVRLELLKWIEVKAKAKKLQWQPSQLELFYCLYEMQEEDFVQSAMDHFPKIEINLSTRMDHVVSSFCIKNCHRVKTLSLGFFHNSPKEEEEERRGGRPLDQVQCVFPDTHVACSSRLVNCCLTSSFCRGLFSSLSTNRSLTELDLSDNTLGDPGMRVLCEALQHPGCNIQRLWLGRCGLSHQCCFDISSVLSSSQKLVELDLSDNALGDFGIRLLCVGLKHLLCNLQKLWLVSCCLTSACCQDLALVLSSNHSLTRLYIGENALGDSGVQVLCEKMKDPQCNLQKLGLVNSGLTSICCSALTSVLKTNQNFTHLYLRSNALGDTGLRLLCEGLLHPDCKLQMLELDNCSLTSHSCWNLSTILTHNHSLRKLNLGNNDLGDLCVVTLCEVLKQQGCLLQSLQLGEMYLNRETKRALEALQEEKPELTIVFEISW
T1 sequence (Q12809 whole entry): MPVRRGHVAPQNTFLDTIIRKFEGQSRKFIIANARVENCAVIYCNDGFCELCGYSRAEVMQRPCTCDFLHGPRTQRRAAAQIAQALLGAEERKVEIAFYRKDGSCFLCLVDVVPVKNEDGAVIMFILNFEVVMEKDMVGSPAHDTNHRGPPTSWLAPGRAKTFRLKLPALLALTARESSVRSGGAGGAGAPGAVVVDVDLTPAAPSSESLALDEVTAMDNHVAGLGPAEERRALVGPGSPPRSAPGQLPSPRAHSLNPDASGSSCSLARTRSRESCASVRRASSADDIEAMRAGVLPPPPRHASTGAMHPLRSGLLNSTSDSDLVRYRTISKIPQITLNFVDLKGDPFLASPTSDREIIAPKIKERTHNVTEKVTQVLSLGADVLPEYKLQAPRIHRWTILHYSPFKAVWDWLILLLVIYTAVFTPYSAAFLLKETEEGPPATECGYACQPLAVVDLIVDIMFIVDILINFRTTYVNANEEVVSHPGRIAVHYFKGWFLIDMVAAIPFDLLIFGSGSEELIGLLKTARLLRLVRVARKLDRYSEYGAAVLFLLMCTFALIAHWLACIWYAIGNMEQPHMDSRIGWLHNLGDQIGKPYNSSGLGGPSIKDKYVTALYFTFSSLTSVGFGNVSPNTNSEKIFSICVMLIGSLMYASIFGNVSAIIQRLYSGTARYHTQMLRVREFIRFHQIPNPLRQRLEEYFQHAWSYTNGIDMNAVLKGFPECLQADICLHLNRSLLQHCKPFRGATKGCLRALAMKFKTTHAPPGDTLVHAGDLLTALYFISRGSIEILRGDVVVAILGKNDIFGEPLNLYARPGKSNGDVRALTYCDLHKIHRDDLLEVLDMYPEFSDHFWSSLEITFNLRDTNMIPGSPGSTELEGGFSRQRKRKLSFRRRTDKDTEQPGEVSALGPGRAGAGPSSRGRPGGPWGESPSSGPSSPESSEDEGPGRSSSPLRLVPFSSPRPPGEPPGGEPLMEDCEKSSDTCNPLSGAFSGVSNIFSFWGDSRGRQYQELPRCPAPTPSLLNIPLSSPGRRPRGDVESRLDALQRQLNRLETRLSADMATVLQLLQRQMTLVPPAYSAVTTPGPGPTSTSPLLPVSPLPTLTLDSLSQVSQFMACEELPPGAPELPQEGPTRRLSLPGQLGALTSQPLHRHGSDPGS
T2 sequence (Q96P20 whole entry): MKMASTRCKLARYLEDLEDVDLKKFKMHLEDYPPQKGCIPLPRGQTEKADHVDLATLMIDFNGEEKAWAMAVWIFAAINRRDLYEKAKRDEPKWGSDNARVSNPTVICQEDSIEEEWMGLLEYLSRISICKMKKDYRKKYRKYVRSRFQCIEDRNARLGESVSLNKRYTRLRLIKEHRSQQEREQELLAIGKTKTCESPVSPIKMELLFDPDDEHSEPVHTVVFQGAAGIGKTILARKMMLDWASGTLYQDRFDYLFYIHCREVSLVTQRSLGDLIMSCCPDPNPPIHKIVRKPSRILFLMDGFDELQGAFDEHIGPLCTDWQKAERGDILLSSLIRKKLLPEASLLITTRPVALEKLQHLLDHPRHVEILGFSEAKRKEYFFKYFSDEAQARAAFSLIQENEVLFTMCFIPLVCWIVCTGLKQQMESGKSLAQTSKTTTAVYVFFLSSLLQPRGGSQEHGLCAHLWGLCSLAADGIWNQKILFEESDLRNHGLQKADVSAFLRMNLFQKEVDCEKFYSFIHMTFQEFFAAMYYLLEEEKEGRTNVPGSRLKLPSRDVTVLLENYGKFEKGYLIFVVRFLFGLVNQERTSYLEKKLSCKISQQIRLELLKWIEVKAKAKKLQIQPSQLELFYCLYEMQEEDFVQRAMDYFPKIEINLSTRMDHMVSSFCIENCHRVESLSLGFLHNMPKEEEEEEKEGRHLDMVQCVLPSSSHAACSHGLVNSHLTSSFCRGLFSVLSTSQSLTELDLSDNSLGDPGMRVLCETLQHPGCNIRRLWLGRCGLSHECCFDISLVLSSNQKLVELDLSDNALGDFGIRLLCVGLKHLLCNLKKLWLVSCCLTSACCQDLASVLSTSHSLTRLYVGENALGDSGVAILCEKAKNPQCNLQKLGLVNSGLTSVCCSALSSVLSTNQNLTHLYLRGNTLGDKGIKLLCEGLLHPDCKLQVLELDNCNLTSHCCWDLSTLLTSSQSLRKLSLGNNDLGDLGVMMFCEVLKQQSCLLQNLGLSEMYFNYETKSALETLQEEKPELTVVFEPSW

| SMILES | inhibition at 1 µM (hERG potassium channel) [%] | inhibition at 10 µM (hERG potassium channel) [%] | pIC50 (NLRP3 [1]) | half-life [2] [h] | AUC [2] [ng·h/mL] | pIC50 (NLRP3 [3]) | pIC50 (NLRP3 [4]) |
| --- | --- | --- | --- | --- | --- | --- | --- |
| COc1ccc(S(=O)(=O)NC(=O)Nc2c3c(cc4c2CCC4)CCC3)cc1CN(C)C [Example 3, 3-((dimethylamino)methyl)-N-((1,2,3,5,6,7-hexahydro-s-indacen-4-yl)carbamoyl)-4-methoxybenzenesulfonamide] | 0.45 | 1.56 | 6.69 |  |  |  |  |
| CN(C)Cc1cc(S(=O)(=O)NC(=O)Nc2c3c(cc4c2CCC4)CCC3)ccc1O [Example 5, 3-((dimethylamino)methyl)-N-((1,2,3,5,6,7-hexahydro-s-indacen-4-yl)carbamoyl)-4-hydroxybenzenesulfonamide] | 0.28 | -0.61 | 6.65 | 1.93 | 33900 |  |  |
| CN(C)Cc1cccc(S(=O)(=O)NC(=O)Nc2c3c(cc4c2CCC4)CCC3)c1N [Example 19, 2-amino-3-((dimethylamino)methyl)-N-((1,2,3,5,6,7-hexahydro-s-indacen-4-yl)carbamoyl)benzenesulfonamide] | 0.3 | 2.96 | 6.94 | 3.85 | 56500 | 5.90 | 6.56 |
